{"source": "patent US12281333B2", "about": "“Renal tube assay device and methods of manufacture and use” (The University of Kansas, priority 2020, dated 2025)", "key": {"[1]": {"tested_on": "tubules of M1 cells", "assay": "Contractility of renal tubule model lined by M1 cells (kymogram analysis of time-lapse images)", "type": "cell-based, mouse", "conditions": "for relative contraction (ratio of measured contraction to tubule diameter): percent of untreated tubule diameter, FIG. 3C", "method": "(§1) Time-lapse recordings of kidney epithelial cells in hydrogel tunnels were performed on a Zeiss Axio Observer Z1 ® inverted microscope with a 10× Plan Neofluar® objective. The microscope was equipped with a Marzhauser SCAN-IM powered stage and a Zeiss AxioCam® MRm CCD camera. Cell cultures established in flow chambers within cell culture dishes (Greiner) were continuously kept in a stage-incubator (Cell Movie) providing 37° C. and humidified 5% CO2 atmosphere. Stage positioning, focusing and image collection were all controlled by Zeiss Axiovision® 4.8 software and a custom-made experiment manager software module. Phase contrast images were collected consecutively in every 10 minutes from several microscopic fields for up to 4 days. Alternatively, for real-time video microscopy the images were captured at a rate of 20 frames per second.\nContraction of renal tubule models were analyzed on the basis of image series captured by phase-contrast time-lapse video microscopy. Using NIH ImageJ software's Reslice function image series were resliced along a cross sectional line across the tubule resulting in a kymogram.\nFor inhibition of actomyosin contractility, Y27632, a cell-permeable Rho kinase inhibitor, (Merck Millipore (9) was applied. The inhibitor was dissolved in water and kept in 10 mM stock solutions and used at 50 μM final concentration. For control treatments, an identical volume of water was applied.\n(§2) The inhibitor was applied at 50 μM final concentration in the flow chamber without circulation, resulting in dilation of the tunnel within 30 minutes. […] Both the dilation and contraction responses were quantitatively analyzed by constructing kymograms from the phase-contrast time-lapse image series as shown in FIG. 3A. In a collagen I gel, the diameter of 250 μm wide M1- or MDCK-lined tunnels contracted by 20 or 15 μm, respectively as shown in FIG. 3B. The relative contraction (as defined by the ratio of the measured contraction to tubule diameter) is larger for tubules with smaller diameters: while the 250 μm tubule contracts almost […] of its diameter, a 600 μm large tubule contracts only about 5% as shown in FIG. 3C.\nFIGS. 3A-3C show the contractility of model renal tubules. FIG. 3A includes a representative kymogram along a perpendicular cross section of a tubule of M1 cells in collagen I gel matrix. Time progresses from top to bottom, a 10h long interval is indicated by the arrow. The duration of treatment with 50 μM Y27632 Rho kinase inhibitor is indicated with the red line (scale bar: 50 μm). FIGS. 3B-3C include graphs illustrating quantitative analysis of tubule contractility. […] Error bars represent SEM."}, "[2]": {"tested_on": "tubules of MDCK cells", "assay": "Contractility of renal tubule model lined by MDCK cells (kymogram analysis of time-lapse images)", "type": "cell-based, canine", "conditions": "250 μm wide MDCK-lined tunnels in collagen I gel; 50 μM inhibitor then washout; FIG. 3B, n=2", "method": "as §1, with “Phase contrast images were collected consecutively in every 10 minutes from several microscopic fields for up to 4 days. Alternatively, for real-time video microscopy the images were captured at a rate of 20 frames per second.” left out\nContraction of renal tubule models were analyzed on the basis of image series captured by phase-contrast time-lapse video microscopy. […]\nas §2, with “In a collagen I gel, the diameter of 250 μm wide M1- or MDCK-lined tunnels contracted by 20 or 15 μm, respectively as shown in FIG. 3B.” left out, “3C. […]” for “3C.”"}}, "data": [{"molecule": "C[C@@H](N)[C@H]1CC[C@H](C(=O)Nc2ccncc2)CC1", "note": "[Y27632]", "values": [{"measurement": "time to dilation of the tunnel", "setting": "[1]; 50 μM final concentration in the flow chamber without circulation, cell line not given, FIG. 3A kymogram is M1 cells in collagen I gel", "result": "≤ 30", "unit": "min"}, {"measurement": "relative contraction (ratio of measured contraction to tubule diameter)", "setting": "[1]; 250 μm tubule of M1 cells", "result": "~13", "unit": "%"}, {"measurement": "contraction of tunnel diameter", "setting": "[1]; 250 μm wide M1-lined tunnels in collagen I gel, 50 μM inhibitor then washout, FIG. 3B, n=2", "result": 20, "unit": "μm"}, {"measurement": "relative contraction (ratio of measured contraction to tubule diameter)", "setting": "[1]; 600 μm tubule of M1 cells", "result": "about 5%"}, {"measurement": "effect of subsequent washout of the inhibitor on the tunnel", "setting": "[1]; after 50 μM treatment, washout", "result": "gradual contraction of the tunnel to approximately its initial state"}, {"measurement": "contraction of tunnel diameter", "setting": "[2]", "result": 15, "unit": "μm"}]}]}
